# Assay results reported in article PMC3691182 (PLoS ONE, 2013).
# Entries after “also recorded” stand apart in the source; their conditions may differ. Like-named read-outs stand apart in the source and are kept apart here.
# How the values were obtained:
# DRG neuron = system: DRG neuron; set-up: method as in PMID 16267209, PMID 19409400; details: in words; ref [27], [28]; cited from earlier work
# [1] = system: TTX-S voltage-gated sodium channel of DRG neurons; assay: Whole-cell patch-clamp, inhibition of TTX-S sodium currents in DRG neurons; type: cell-based, adult Sprague-Dawley rat
# [2] = system: TTX-R sodium channel of DRG neurons; assay: Whole-cell patch-clamp, TTX-R sodium currents in DRG neurons; type: cell-based, adult Sprague-Dawley rat
# [3] = system: TTX-S sodium channels in rat DRG neurons; assay: Time course for block of TTX-S currents and reversal of block on washing; type: cell-based
# [4] = system: TTX-S sodium channels in rat DRG neurons; assay: Current-voltage relationship, conductance, steady-state activation and inactivation of TTX-S sodium channel; type: cell-based
# Nav1.7 = assay: Triple-pulse protocol, recovery of Nav1.7 current following strong depolarization (HEK293 cells); type: cell-based
# [5] = system: neuronal TTX-sensitive voltage-gated sodium channels; details: cited from earlier work
# [6] = system: TTX-resistant voltage-gated sodium channels; details: in words; reference not given; cited from earlier work
# Description: Previous research has identified nearly 150 of these components in the Chinese bird spider, Ornithoctonus huwena, which is one of the most venomous spiders in China. Most of the toxins have six cystine residues adopting inhibitor cystine-knot (ICK) motif with a 1–4, 2–5, 3–6 disulfide bonding pattern; the biological activities of some peptide toxins were thoroughly investigated.
# sodium channel = details: cited from earlier work
# Description: Huwentoxin-IV (HWTX-IV), a tetrodotoxin-sensitive (TTX-s) sodium channel antagonist, is found in the venom of the Chinese spider Ornithoctonus huwena. A naturally modified HWTX-IV (mHWTX-IV), having a molecular mass 18 Da lower than HWTX-IV, has also been isolated from the venom of the same spider. […] Previous research has identified nearly 150 of these components in the Chinese bird spider, Ornithoctonus huwena, which is one of the most venomous spiders in China. […] To address this question, we adopted a triple-pulse protocol in which a test pulse (−10 mV) following a strong depolarization (+200 mV, 500 ms) was used to measure available TTX-S sodium currents.
# domain II of Nav1.7 = details: in words; ref [11]; cited from earlier work
substance,measurement,setting,value
Jingzhaotoxin-IX [JZTX-IX],Action under extreme depolarization on DRG neuron compared with mHWTX-IV,DRG neuron,similar
Huwentoxin-IV [HWTX-IV],IC50,[1],42.9 ± 1.72 nM
same,Inhibition of TTX-S currents,[1],almost completely inhibited; also recorded: significantly reduced
same,Effect on TTX-R sodium currents,[2],no effect
same,"Dissociation after washing, in words",[3],slowly dissociated
same,Time course for inhibition of TTX-S currents,[3],25.4 s
same,Time course of dissociation after washing,[3],88.3 s
same,Channel conductance (conductance–voltage curve),[4],did not change channel conductance
same,"Steady-state activation and inactivation, comparison of HWTX-IV and mHWTX-IV",[4],no obvious difference
same,Steady-state inactivation of TTX-S sodium channel,[4],No shift of the steady-state inactivation curve
same,Threshold of activation and reversal potential of TTX-S sodium channel (I–V),[4],did not change the threshold of activation and alter the reversal potential
same,"Recovery of Nav1.7 current, +50 mV","Nav1.7; 1 µM toxin, HEK293 cells, +50 mV for 500 ms, in words",little recovery
same,"Recovery of Nav1.7 current, +100 mV","Nav1.7; 1 µM toxin, HEK293 cells, +100 mV for 500 ms, in words",little recovery
same,"Recovery of Nav1.7 current, +150 mV","Nav1.7; 1 µM toxin, HEK293 cells, +150 mV, five cells",about 34%
same,"Recovery of Nav1.7 current, +200 mV","Nav1.7; 1 µM toxin, HEK293 cells, +200 mV, five cells",~78%
same,Recovery of Nav1.7 current by extreme depolarization (summary),"Nav1.7; abstract summary, in words",voltage-dependent and was induced by extreme depolarization
same,Inhibition of TTX-S sodium channel in DRG neurons (literature),[5],specifically inhibited
same,IC50,"[5]; read-out: IC50, inhibition of neuronal TTX-sensitive sodium channels (literature)",30 nM
same,Effect on TTX-resistant sodium channels (literature),[6],no significant effect
same,Dissociation at moderate depolarization,sodium channel,dissociates at moderate voltage depolarization voltages
same,Reversal of binding to sodium channels by strong depolarization (literature),sodium channel,can be reversed by strong depolarization
same,Reversibility of inhibition by strong depolarization (literature),sodium channel,reversible by strong depolarization
same,Voltage above which currents can be observed (dissociation by strong depolarization),sodium channel,> 70 mV
same,Binding site on Nav1.7,domain II of Nav1.7,binds with the S3–S4 linker D816 and E818 in domain II of Nav1.7 by electrostatic interaction
ProTx-II,Reversal of binding to sodium channels by strong depolarization (literature),"sodium channel; in words, ref [11], [19], [20]",can be reversed by strong depolarization
jingzhaotoxin-34 [JZTX-34],Inhibition of neuronal TTX-sensitive sodium channels (literature),"[5]; in words, ref [9]",inhibited neuronal TTX-sensitive voltage-gated sodium channels
